These results are taken from patent publication US7276511B2, “Benzylamine derivative” (Zeria Pharmaceutical Co., Ltd., priority 2003, dated 2007).

Where a name gives a salt, the structure may show the parent alone.

The target of this test is T1, Cloned Neurokinin Receptor Subtype 2 Human (Homo sapiens, UniProt P21452).
T1 construct: purchased Biosignal Packard; host or cells: CHO cells
T1 sequence (P21452 1-398): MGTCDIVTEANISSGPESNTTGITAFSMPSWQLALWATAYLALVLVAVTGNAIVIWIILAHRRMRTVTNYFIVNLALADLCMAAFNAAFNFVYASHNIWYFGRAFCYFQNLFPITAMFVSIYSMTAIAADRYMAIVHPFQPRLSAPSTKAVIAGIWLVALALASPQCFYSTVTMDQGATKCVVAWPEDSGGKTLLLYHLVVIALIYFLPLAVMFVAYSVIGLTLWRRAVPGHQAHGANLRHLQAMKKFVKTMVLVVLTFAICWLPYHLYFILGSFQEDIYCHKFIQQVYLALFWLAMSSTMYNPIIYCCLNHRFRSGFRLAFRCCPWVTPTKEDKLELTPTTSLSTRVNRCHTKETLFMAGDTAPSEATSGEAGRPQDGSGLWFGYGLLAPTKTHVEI
The experiment in a line: NK-2 receptor-binding experiment ([3H]-SR48968, CHO cell membranes). The following applies: Table 3; inhibition of [3H]-SR48968 (0.85 nM) binding, pseudo-Hill analysis. Here is the method:
2. NK-2 Receptor-binding Experiment
Cloned Neurokinin Receptor Subtype 2 Human (CHO cells, Biosignal Packard), [^3H]-SR48968 (Amersham, final concentration 0.85 nM), and a test compound were mixed with 20 mM HEPES buffer, and the mixture was incubated for 50 minutes at 27° C. After completion of incubation, membrane components were collected by means of an automatic filtration apparatus (Brandel) onto a GF/C glass fiber filter (Whatman).
Before use, in order to prevent non-specific binding, the glass fiber filter had been pre-treated with 0.1% polyethylene imine solution for about 4 hours.
The filter employed to collect the membrane components was transferred to a plastic vial containing UltimaGold MV (5 mL), and measured by means of a liquid scintillation counter (Packard, 2000CA) in terms of the radioactivity.
Percent radioactive ligand-receptor binding inhibition of each test compound was calculated by use of the following equation, and IC50 (nM) was determined through pseudo-Hill analysis.
Percent inhibition (%)=[1−(C−A)/(B−A)]×100
A: Radioactivity attributed to non-specific binding
B: Radioactivity without test compound
C: Radioactivity with test compound
For `CCOC(=O)C(=O)N(C)C(CCN1CCC2(CC1)c1ccccc1C[C@@H]2O)(COCc1cc(OC)c(OC)c(OC)c1)c1ccc(Cl)c(Cl)c1` (mixture of isomers) [Compound No. 21, N-[1-(3,4-Dichloro-phenyl)-3-{spiro[((2S)-hydroxy)indan-1,4′-piperidine]}-1′-yl-1-(3,4,5-trimethoxy-benzyloxymethyl)-propyl]-N-methyl-oxamic acid ethyl ester hydrochloride], the IC50 (commonly the concentration that gives 50% inhibition) was found to be 8.7 nM.
For `CN(CC(CCN1CCC2(CC1)c1ccccc1C[S@+]2[O-])(c1ccc(Cl)c(Cl)c1)N(C)C(=O)C(=O)N(C)c1ccccc1)C(=O)CC(F)(F)F` (single isomer, unassigned) [Compound No. 10] the value was 4.1 nM.
`CN(CC(CCN1CCC2(CC1)NC(=O)Cc1ccccc12)(c1ccc(Cl)c(Cl)c1)N(C)C(=O)NC(c1ccccc1)c1ccccc1)C(=O)C(F)(F)F` (stereo not drawn) [Compound No. 3, N-{2-(3-benzhydryl-1-methylureido)-2-(3,4-dihydrodichlorophenyl)-4-{spiro[isoquinoline-1(2H),4′-piperidine]-3(4H)-one}-1′-yl-butyl}-2,2,2-trifluoro-N-methyl-acetamide hydrochloride] gave an IC50 of 1.7 nM.
On to `CN(CC(CCN1CCC2(CC1)c1ccccc1C[S+]2[O-])(c1ccc(Cl)c(Cl)c1)N(C)C(=O)C(=O)Nc1ccccc1Cl)C(=O)CC(F)(F)F` [Compound No. 9, N-(2-Chloro-phenyl)-N′-{1-(3,4-dichloro-phenyl)-1-{[methyl-(3,3,3-trifluoro-propionyl)-amino]-methyl}-3-{spiro[benzo(c)thiophene-1(3H),4′-piperidine]-(2S)-oxido}-1′-yl-propyl}-N′-methyl-oxalamide hydrochloride], for which the IC50 was found to be 7.2 nM.
On to `CN(CC(CCN1CCC2(CC1)c1ccccc1CS2(=O)=O)(c1ccc(Cl)c(Cl)c1)N(C)C(=O)NC(c1ccccc1)c1ccccc1)C(=O)C(F)F` (stereo not drawn) [Compound No. 11, N-[2-(3-Benzhydryl-1-methyl-ureido)-2-(3,4-dichloro-phenyl)-4-{spiro[benzo(c)thiophene-1(3H),4′-piperidine]-2,2-dioxido}-1′-yl-butyl]-2,2-difluoro-N-methyl-acetamide hydrochloride], for which the IC50 is 8.1 nM.
The compound `CN(CC(CCN1CCC2(CC1)c1ccccc1C[S+]2[O-])(c1ccc(Cl)c(Cl)c1)N(C)C(=O)c1ccccc1)C(=O)CC(F)(F)F` [Compound No. 13, N-{1-(3,4-Dichloro-phenyl)-1-{[methyl-(3,3,3-trifluoro-propionyl)-amino]-methyl}-3-{spiro[benzo(c)thiophene-1(3H),4′-piperidine]-(2S)-oxido}-1′-yl-propyl}-N-methyl-benzamide hydrochloride] came in with an IC50 of 2.6 nM.
The compound `CN(CC(CCN1CCC2(CC1)c1ccccc1C[S+]2[O-])(c1ccc(Cl)c(Cl)c1)N(C)C(=O)Cc1ccccc1)C(=O)CC(F)(F)F` [Compound No. 14, N-[2-(3,4-Dichloro-phenyl)-2-(methyl-phenylacetyl-amino)-4-{spiro[benzo(c)thiophene-1(3H),4′-piperidine]-(2S)-oxido}-1′-yl-butyl]-3,3,3-trifluoro-N-methyl-propionamide hydrochloride] registered an IC50 of 0.34 nM.
For `CN(C[C@](CCN1CCC2(CC1)NC(=O)Cc1ccccc12)(c1ccc(Cl)c(Cl)c1)N(C)C(=O)c1ccccc1)C(=O)CC(F)(F)F` [Compound No. 22, N-{1-(3,3,3-trifluoro-N-methylpropanamido)-2-(S)-(3,4-dichlorophenyl)-4-[3-oxo-3,4-dihydro-2H-spiro(isoquinoline-1,4′-piperidin)-1′-yl]butan-2-yl}-N-methylbenzamide hydrochloride] the value was 0.95 nM; for `CN(C[C@](CCN1CCC2(CC1)NC(=O)Cc1ccccc12)(c1ccc(Cl)c(Cl)c1)N(C)C(=O)c1ccccc1)C(=O)C(F)(F)F` [Compound No. 23, N-{1-(2,2,2-trifluoro-N-methylacetamide)-2-(S)-(3,4-dichlorophenyl)-4-[3-oxo-3,4-dihydro-2H-spiro(isoquinoline-1,4′-piperidin)-1′-yl]butan-2-yl}-N-methylbenzamide hydrochloride], 1.7 nM; for `CN(C[C@](CCN1CCC2(CC1)NC(=O)Cc1ccccc12)(c1ccc(Cl)c(Cl)c1)N(C)C(=O)c1ccc(C(F)(F)F)cc1)C(=O)C(F)(F)F` [Compound No. 24, N-{1-(2,2,2-trifluoro-N-methylacetamide)-2-(S)-(3,4-dichlorophenyl)-4-[3-oxo-3,4-dihydro-2H-spiro(isoquinoline-1,4′-piperidin)-1′-yl]butan-2-yl}-N-methyl-4-trifluoromethyl-benzamide hydrochloride], 2.9 nM.
Next, `CCN(C(=O)C(=O)N(C)[C@](CCN1CCC2(CC1)c1ccccc1C[S@+]2[O-])(CN(C)C(=O)CC(F)(F)F)c1ccc(Cl)c(Cl)c1)c1ccccc1` [Compound No. 25, N^1-{1-(3,3,3-trifluoro-N-methylpropanamido)-2-(S)-(3,4-dichlorophenyl)-4-[spiro(benzo(c)thiophene-(2S)-oxido-1(3H),4′-piperidin)-1′-yl]butan-2-yl}-N^1-methyl-N^2-ethyl-N^2-phenyloxalamide hydrochloride]: 0.58 nM; `CN(C[C@](CCN1CCC2(CC1)c1ccccc1C[S@+]2[O-])(c1ccc(Cl)c(Cl)c1)N(C)C(=O)c1ccccc1)C(=O)C(F)(F)F` [Compound No. 26, N-{1-(2,2,2-trifluoro-N-methylacetamide)-2-(S)-(3,4-dichlorophenyl)-4-[spiro(benzo(c)thiophene-(2S)-oxido-1(3H),4′-piperidin)-1′-yl]butan-2-yl}-N-methylbenzamide hydrochloride]: 0.85 nM.
Next, `CN(C[C@](CCN1CCC2(CC1)NC(=O)Cc1ccccc12)(c1ccc(Cl)c(Cl)c1)N(C)C(=O)C(=O)N(C)c1ccccc1)C(=O)CC(F)(F)F` [Compound No. 27, N^1-{1-(3,3,3-trifluoro-N-methylpropanamido)-2-(S)-(3,4-dichlorophenyl)-4-[3-oxo-3,4-dihydro-2H-spiro(isoquinoline-1,4′-piperidin)-1′-yl]butan-2-yl}-N^1,N^2-dimethyl-N^2-phenyloxalamide hydrochloride]: 6.7 nM.
Consider `CN(C[C@](CCN1CCC2(CC1)c1ccccc1CS2(=O)=O)(c1ccc(Cl)c(Cl)c1)N(C)C(=O)Cc1ccccc1)C(=O)CC(F)(F)F` [Compound No. 28, N-(1-(3,3,3-trifluoro-N-methylpropanamido)-2-(S)-(3,4-dichlorophenyl)-4-[spiro(benzo(c)thiophene-2,2-dioxido-1(3H),4′-piperidin)-1′-yl]butan-2-yl}-N-methyl-phenylacetamide hydrochloride], for which the IC50 worked out at 2.6 nM.
For `CN(C[C@](CCN1CCC2(CC1)NC(=O)Cc1ccccc12)(c1ccc(Cl)c(Cl)c1)N(C)C(=O)C(=O)Nc1ccccc1)C(=O)C(F)(F)F` [Compound No. 29, N^1-{1-(2,2,2-trifluoro-N-methylacetamide)-2-(S)-(3,4-dichlorophenyl)-4-[3-oxo-3,4-dihydro-2H-spiro(isoquinoline-1,4′-piperidin)-1′-yl]butan-2-yl}-N^1-methyl-N^2-phenyloxalamide hydrochloride] the value was 4 nM; for `CN(C[C@](CCN1CCC2(CC1)c1ccccc1C[S@+]2[O-])(c1ccc(Cl)c(Cl)c1)N(C)C(=O)c1ccccc1F)C(=O)CC(F)(F)F` [Compound No. 30, N-{1-(3,3,3-trifluoro-N-methylpropanamido)-2-(S)-(3,4-dichlorophenyl)-4-[spiro(benzo(c)thiophene-(2S)-oxido-1(3H),4′-piperidin)-1′-yl]butan-2-yl}-N-methyl-2-fluorobenzamide hydrochloride], 1.2 nM.
Next, `CN(C[C@](CCN1CCC2(CC1)c1ccccc1C[S@+]2[O-])(c1ccc(Cl)c(Cl)c1)N(C)C(=O)c1ccc(C(F)(F)F)cc1)C(=O)CC(F)(F)F` [Compound No. 31, N-{1-(3,3,3-trifluoro-N-methylpropanamido)-2-(S)-(3,4-dichlorophenyl)-4-[spiro(benzo(c)thiophene-(2S)-oxido-1(3H),4′-piperidin)-1′-yl]butan-2-yl}-N-methyl-4-trifluoromethylbenzamide hydrochloride]: 0.75 nM; `CC(C)C(=O)N(C)C[C@](CCN1CCC2(CC1)c1ccccc1C[S@+]2[O-])(c1ccc(Cl)c(Cl)c1)N(C)C(=O)c1ccccc1` [Compound No. 32, N-{1-(N-methylisobutylamide)-2-(S)-(3,4-dichlorophenyl)-4-[spiro(benzo(c)thiophene-(2S)-oxido-1(3H),4′-piperidin)-1′-yl]butan-2-yl}-N-methylbenzamide hydrochloride]: 1 nM.
